Series [1] in a line: Dissociation constants of complexes with γ-CD by FTIR spectroscopy (Hill fit). The class given is physicochemical. As to conditions: complex formed in molar excess of X approximately 1.2–1.4, PBS. From the text:
FTIR spectroscopy provides valuable data on the interaction of molecules, including those applicable to characterize the non-covalent complexes of apiol-PPh3 (and analogues) with cyclodextrins and heparin. In the FTIR spectra of apiol-PPh3 and analogues (Figure 3a), one characteristic is the bands of valence oscillations of the bonds C=C of the aromatic system (1450–1650 cm^−1) overlapping with the bands of deformation oscillations C-H (1400–1500 cm^−1). The intensity of these peaks increases with the formation of non-covalent complexes of apiol-PPh3 and its analogues with cyclodextrins and heparin due to the transition of the solid phase into solution. Linear fitting of the intensity of peaks in the FTIR spectra on the cyclodextrin or heparin concentration (Section 2.3) in Hill coordinates allows determining the dissociation constants of the complexes (Table 2). The interactions of triphenylphosphine derivatives of allylbenzenes with γ-CD is rather weak (Kd 10 mM values). In the case of M-β-CD, the dissociation constants reach millimolar values, which is sufficient to obtain soluble forms of adjuvants (Table 2). Thus, the β-cyclodextrin derivatives are more suitable in terms of size for inclusion of the adjuvants studied. […] Comparing the values of the dissociation constants of alkylbenzenes and PPh3-derivatives complexes with cyclodextrins, we observed that these Kd values are close, which means that it is the allylbenzene-fragment (of apiol-PPh3) that plunges into the cyclodextrin cavity, and the triphenylphosphine radical looks outward (Figure 3b), which would provide the implementation of mitochondrial targeting of the developed formulations.
Non-covalent complexes of apiol, apiol-PPh3 and analogues with cyclodextrins (with different molar ratios) and heparin (15 kDa, 1:1 w/w) were obtained by adding solutions of cyclodextrins (100 mg/mL) or heparin (20 mg/mL) in PBS to apiol or apiol-PPh3 (or analogues) samples (2–3 mg). The excess of CDs or heparin was varied from 0.04 to 10 mol/mol. Then, mixtures were incubated for 1 h at 40 °C. Cyclodextrin or heparin are necessary for the solubilization of extremely poorly soluble compounds.
The ATR-FTIR spectra of samples (Section 3.3) were acquired using a Bruker Tensor 27 spectrometer equipped with a liquid N2 cooled MCT (mercury cadmium telluride) detector. Samples were placed in a thermostatic cell BioATR-II with ZnSe ATR element (Bruker, Germany). FTIR spectra were recorded from 850 to 4000 cm^−1 with 1 cm^−1 spectral resolution; 50 scans were accumulated and averaged. Spectral data were processed using the Bruker software system Opus 8.2.28 (Bruker, Germany). The spectrum of cyclodextrin or heparin in the corresponding concentration was subtracted from the spectra of the complexes. […]

Series [2] can be described thus: Solubility by UV spectroscopy (PBS, with and without M-β-CD). The class given is physicochemical. The note with it: for solubility: aqueous buffer, thermodynamic from solid. How it is done: On the contrary, their complexes with M-β-CD are soluble, and a clear peak in the UV spectrum is pronounced (225 nm). Based on UV spectra data in the presence of M-β-CD, the increase in solubility of apiol-PPh3 and analogues by a second order of magnitude is observed (Table 2).
The solubility of apiol and apiol-PPh3 (or analogues) in aqueous solution was determined by UV spectroscopy. UV spectra were recorded on the UltraSpec 2100 pro device (AmerSham Biosciences, Cambridge, UK) three times. The substances were dissolved in acetonitrile followed by recording the UV spectra at various cytostatics’ concentrations, and then we plotted calibration dependencies. Next, saturated solutions of substances in water were prepared, and the spectra of the aqueous solutions were recorded. Considering the extinction coefficients in water and acetonitrile to be approximately equal, the solubility was determined.

For a further series, the system named is A549 cells. Nature of the series: MTT assay, synergy of adjuvants with paclitaxel against A549. The class given is cell-based, human. As to conditions: X − M-β-CD, SC = CV(paclitaxel) × CV(adjuvant)/CV(combo). From the text:
Apparently PPh3 derivatives effectively penetrate into cancer cells along a potential gradient, inhibit efflux proteins and mitochondrial enzymes, causing the apoptosis of cancer cells, with IC50 values being lower by two orders of magnitude than the corresponding allylbenzene (Table 3). […] For allylbenzenes, a synergy close to additivity (the cytostatic effect of adjuvant + paclitaxel is almost equal to the sum of their individual contributions) was observed; for PPh3 derivatives, a pronounced increase in the action of paclitaxel is characteristic (the cytostatic effect of adjuvant + paclitaxel is much higher (>) than the sum of their individual contributions). For apiol-PPh3, the most pronounced effect of increasing the activity of paclitaxel was observed (Figure 4b).
Figure 4 Viability of A549 cells in the presence of paclitaxel and allylbenzenes’ PPh3 derivatives in the form of complexes with M-β-CD (1:5 mol/mol). MTT assay. (a) Dose–effect graphs. (b) MTT assay results for 100 nM paclitaxel alone and combined with allylbenzenes’ PPh3 derivatives in the form of complexes with M-β-CD (1:5 mol/mol).
The cytotoxic activity of paclitaxel, Apiol-PPh3 and analogues was determined using an MTT test. Paclitaxel-adjuvant synergism coefficients (SC) were calculated as CV (paclitaxel) × CV (alone adjuvant)/CV (combo paclitaxel + adjuvant), where CV represents the cell viability. The synergy coefficient can be interpreted as strong synergy (SC > 2), synergy (2 > SC > 1.2), indifference/additivity (1.2 > SC > 0.8), antagonism (0.8 > SC > 0.5), and inhibition (SC < 0.5), as described earlier.
(Tetrazolium assays rely on reduction of a dye to a coloured formazan, in cell work by metabolically active cells.)

By solubility is commonly meant how much of the substance goes into solution per volume. Read a high solubility as a readily soluble substance.

In the case of `COc1cc(CCC[P+](c2ccccc2)(c2ccccc2)c2ccccc2)c(OC)c(OC)c1OC` [Allyltetramethoxybenzene-PPh3], in series [1], the “−lg Kd (X − γ-CD)” value was 2.1 ± 0.2. In series [2], the “Solubility in the Presence of 0.05 M M-β-CD” value (shortened to “Solubility in the Presence”) worked out at 17000 ± 5000 µM and the concentration in solution (solubility) was 70 ± 10 µM. In addition, in the series with A549 cells, the “Synergy Coefficients of Adjuvants and PPh3–Adjuvants with Paclitaxel” value (“Synergy Coefficients” below) came to 1.3 ± 0.1.

Take `COc1cc(CCC[P+](c2ccccc2)(c2ccccc2)c2ccccc2)c(OC)c2c1OCO2` [Apiol-PPh3]: in series [1], the “−lg Kd (X − γ-CD)” value was 1.2 ± 0.2. Also, in series [2], the “Solubility in the Presence” value was 15000 ± 2000 µM and the concentration in solution (solubility) was 80 ± 10 µM. For the same compound, the “Synergy Coefficients” value with A549 cells is given as 2.2 ± 0.2.

Consider `COc1c(CCC[P+](c2ccccc2)(c2ccccc2)c2ccccc2)cc2c(c1OC)OCO2` [Dillapiol-PPh3], for which, in series [1], the “−lg Kd (X − γ-CD)” value is given as 1.4 ± 0.3. Moreover, in series [2], the “Solubility in the Presence” value amounted to 8000 ± 1000 µM and the concentration in solution (solubility) came to 90 ± 10 µM. In addition, the “Synergy Coefficients” value in the series on A549 cells was 1.5 ± 0.1.

Take `COc1cc(CCC[P+](c2ccccc2)(c2ccccc2)c2ccccc2)cc2c1OCO2` [Myristicin-PPh3]: the “−lg Kd (X − γ-CD)” value in series [1] is recorded as 1.3 ± 0.1. In series [2], the “Solubility in the Presence” value came out at 12000 ± 3000 µM and the concentration in solution (solubility) came to 40 ± 5 µM. Besides, the “Synergy Coefficients” value with A549 cells is reported as 1.8 ± 0.3.
